Test results published in PubChem BioAssay AID1963852 (Molecular Pharmacology Branch, DTP, NCI, 2024).

System: 282377-053-R-J1-PDC complex spheroid viability
Test: Anticancer human tumor 282377-053-R-J1-PDC patient-derived colon adenocarcinoma cell line growth inhibition [POLQ]
Details: for IC50: curve of first compound; for viability, T/C: stronger effect = lower value
How it was run: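 Patient-derived tumour cells were co-cultured with HUVEC and mesenchymal stem cells as multicellular spheroids at 37 °C. They were treated with POLQ inhibitors (novobiocin, ART-558, RP6685) alone or combined with other agents. Top concentrations were at or near clinical Cmax (otherwise 10 microM; SN-38 at 1 microM), decreasing in half-log steps.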

[1] = second compound 0.0316 µM, first compound 0.0316 µM
[2] = second compound 0.0316 µM, first compound 0.1 µM
[3] = second compound 0.0316 µM, first compound 0.316 µM
[4] = second compound 0.0316 µM, first compound 1 µM
[5] = second compound 0.1 µM, first compound 0.0316 µM
[6] = second compound 0.1 µM, first compound 0.1 µM
[7] = second compound 0.1 µM, first compound 0.316 µM
[8] = second compound 0.1 µM, first compound 1 µM
[9] = second compound 0.316 µM, first compound 0.0316 µM
[10] = second compound 0.316 µM, first compound 0.1 µM
[11] = second compound 0.316 µM, first compound 0.316 µM
[12] = second compound 0.316 µM, first compound 1 µM
[13] = second compound 1 µM, first compound 0.0316 µM
[14] = second compound 1 µM, first compound 0.1 µM
[15] = second compound 1 µM, first compound 0.316 µM
[16] = second compound 1 µM, first compound 1 µM
[17] = second compound 3.16 µM, first compound 0.0316 µM
[18] = second compound 3.16 µM, first compound 0.1 µM
[19] = second compound 3.16 µM, first compound 0.316 µM
[20] = second compound 3.16 µM, first compound 1 µM
[21] = second compound 10 µM, first compound 0.0316 µM
[22] = second compound 10 µM, first compound 0.1 µM
[23] = second compound 10 µM, first compound 0.316 µM
[24] = second compound 10 µM, first compound 1 µM
[25] = second compound 0.0316 µM, first compound 3.16 µM
[26] = second compound 0.0316 µM, first compound 10 µM
[27] = second compound 0.1 µM, first compound 3.16 µM
[28] = second compound 0.1 µM, first compound 10 µM
[29] = second compound 0.316 µM, first compound 3.16 µM
[30] = second compound 0.316 µM, first compound 10 µM
[31] = second compound 1 µM, first compound 3.16 µM
[32] = second compound 1 µM, first compound 10 µM
[33] = second compound 3.16 µM, first compound 3.16 µM
[34] = second compound 3.16 µM, first compound 10 µM
[35] = second compound 10 µM, first compound 3.16 µM
[36] = second compound 10 µM, first compound 10 µM
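Further: spheroids exposed to compounds for seven days.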
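Wherever viability, T/C is given: 100% = DMSO vehicle control viability.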

With `COc1cccc(OCCCN)c1-c1cc(Nc2cnc(C#N)cn2)n[nH]1` + Cc1cccc(N(C)C(=O)C2C(O)CCN2c2nc(C)cc(C(F)(F)F)c2C#N)c1 the IC50 (second compound 0.0316 µM) was 632 nM, the IC50 (second compound 0.1 µM) was 559 nM and the IC50 (second compound 0.316 µM) was over 1000 nM. For the same molecule, the IC50 (second compound 1 µM) was 545 nM, the IC50 (second compound 3.16 µM) was 300 nM and the IC50 (second compound 10 µM) was 395 nM. For the same molecule, the viability, T/C (second compound 0.0316 µM, first compound 0.00316 µM) was 102%, the viability, T/C (second compound 0.0316 µM, first compound 0.01 µM) was 98.5% and the viability, T/C [1] was 85.8%. It also gave a viability, T/C [2] of 74.5%, a viability, T/C [3] of 60.9% and a viability, T/C [4] of 43.1%. For the same molecule, the viability, T/C (second compound 0.1 µM, first compound 0.00316 µM) was 100%, the viability, T/C (second compound 0.1 µM, first compound 0.01 µM) was 95.4% and the viability, T/C [5] was 97%. For the same molecule, the viability, T/C [6] was 73.4%, the viability, T/C [7] was 60% and the viability, T/C [8] was 41.5%. The viability, T/C (second compound 0.316 µM, first compound 0.00316 µM) was 91%, the viability, T/C (second compound 0.316 µM, first compound 0.01 µM) was 88.5% and the viability, T/C [9] was 86.1%. It also gave a viability, T/C [10] of 64.2%, a viability, T/C [11] of 55.7% and a viability, T/C [12] of 49.2%. For the same molecule, the viability, T/C (second compound 1 µM, first compound 0.00316 µM) was 109%, the viability, T/C (second compound 1 µM, first compound 0.01 µM) was 90.2% and the viability, T/C [13] was 72.9%. It also gave a viability, T/C [14] of 59%, a viability, T/C [15] of 57.3% and a viability, T/C [16] of 45.1%. It also gave a viability, T/C (second compound 3.16 µM, first compound 0.00316 µM) of 95.9%, a viability, T/C (second compound 3.16 µM, first compound 0.01 µM) of 102% and a viability, T/C [17] of 84.7%. The viability, T/C [18] was 65.7%, the viability, T/C [19] was 51.8% and the viability, T/C [20] was 39.4%. It also gave a viability, T/C (second compound 10 µM, first compound 0.00316 µM) of 85.3%, a viability, T/C (second compound 10 µM, first compound 0.01 µM) of 90.1% and a viability, T/C [21] of 72.3%. The viability, T/C [22] was 61.8%, the viability, T/C [23] was 55.8% and the viability, T/C [24] was 39.6%.
In the case of `CC1COCCN1c1cc(C2(O)CC3CCC(C2)O3)c2cnn(-c3ccn[nH]3)c2n1` (stereo not drawn) + Nc1ccc(C#CCN(C(=O)Cc2ncc(C(F)(F)F)cc2C(F)(F)F)c2ccc(F)cc2)nn1, the IC50 (second compound 0.0316 µM) is reported as 1980 nM, the IC50 (second compound 0.1 µM) is reported as 588 nM and the IC50 (second compound 0.316 µM) is reported as 1290 nM. The IC50 (second compound 1 µM) was 730 nM, the IC50 (second compound 3.16 µM) was 1180 nM and the IC50 (second compound 10 µM) was 1080 nM. For the same molecule, the viability, T/C [1] was 83.8%, the viability, T/C [2] was 75.4% and the viability, T/C [3] was 67.5%. For the same molecule, the viability, T/C [4] was 53.3%, the viability, T/C [25] was 47.8% and the viability, T/C [26] was 40.5%. It also gave a viability, T/C [5] of 89.3%, a viability, T/C [6] of 89.3% and a viability, T/C [7] of 57.3%. It also gave a viability, T/C [8] of 48.7%, a viability, T/C [27] of 43.3% and a viability, T/C [28] of 36.4%. For the same molecule, the viability, T/C [9] was 107%, the viability, T/C [10] was 84.6% and the viability, T/C [11] was 63.9%. For the same molecule, the viability, T/C [12] was 50.6%, the viability, T/C [29] was 46.5% and the viability, T/C [30] was 36.3%. The viability, T/C [13] was 97.6%, the viability, T/C [14] was 83.9% and the viability, T/C [15] was 71%. For the same molecule, the viability, T/C [16] was 38.3%, the viability, T/C [31] was 44.4% and the viability, T/C [32] was 43.6%. For the same molecule, the viability, T/C [17] was 92.3%, the viability, T/C [18] was 75.7% and the viability, T/C [19] was 65.6%. It also gave a viability, T/C [20] of 47.6%, a viability, T/C [33] of 45.9% and a viability, T/C [34] of 40.8%. The viability, T/C [21] was 97.3%, the viability, T/C [22] was 77.2% and the viability, T/C [23] was 62.8%. For the same molecule, the viability, T/C [24] was 49.3%, the viability, T/C [35] was 44% and the viability, T/C [36] was 40.1%.
With `CCCS(=O)(=O)Nc1ccc(F)c(C(=O)c2c[nH]c3ncc(-c4ccc(Cl)cc4)cc23)c1F` + Nc1ccc(C#CCN(C(=O)Cc2ncc(C(F)(F)F)cc2C(F)(F)F)c2ccc(F)cc2)nn1 the IC50 (second compound 0.0316 µM) was over 10000 nM, the IC50 (second compound 0.1 µM) was over 10000 nM and the IC50 (second compound 0.316 µM) was over 10000 nM. It also gave an IC50 (second compound 1 µM) of over 10000 nM, an IC50 (second compound 3.16 µM) of over 10000 nM and an IC50 (second compound 10 µM) of over 10000 nM. The viability, T/C [1] was 94.3%, the viability, T/C [2] was 77% and the viability, T/C [3] was 71.1%. For the same molecule, the viability, T/C [4] was 57.9%, the viability, T/C [25] was 60.4% and the viability, T/C [26] was 61.9%. For the same molecule, the viability, T/C [5] was 105%, the viability, T/C [6] was 80.2% and the viability, T/C [7] was 77%. The viability, T/C [8] was 60.5%, the viability, T/C [27] was 77.2% and the viability, T/C [28] was 80.7%. It also gave a viability, T/C [9] of 81.5%, a viability, T/C [10] of 81% and a viability, T/C [11] of 73%. It also gave a viability, T/C [12] of 70.9%, a viability, T/C [29] of 66.2% and a viability, T/C [30] of 74.1%. The viability, T/C [13] was 99.8%, the viability, T/C [14] was 93.9% and the viability, T/C [15] was 68.9%. It also gave a viability, T/C [16] of 62.4%, a viability, T/C [31] of 59.1% and a viability, T/C [32] of 60.1%. It also gave a viability, T/C [17] of 120%, a viability, T/C [18] of 90% and a viability, T/C [19] of 69.5%. It also gave a viability, T/C [20] of 78.8%, a viability, T/C [33] of 63.4% and a viability, T/C [34] of 70.4%. For the same molecule, the viability, T/C [21] was 107%, the viability, T/C [22] was 97.6% and the viability, T/C [23] was 80.8%. For the same molecule, the viability, T/C [24] was 71.9%, the viability, T/C [35] was 63.9% and the viability, T/C [36] was 65.3%.
`COc1cc(C2c3cc4c(cc3C(OC3OC5COC(C)OC5C(O)C3O)C3COC(=O)C23)OCO4)cc(OC)c1O` (stereo not drawn) + Nc1ccc(C#CCN(C(=O)Cc2ncc(C(F)(F)F)cc2C(F)(F)F)c2ccc(F)cc2)nn1 was tested, and the IC50 (second compound 0.0316 µM) was over 10000 nM, the IC50 (second compound 0.1 µM) was over 10000 nM and the IC50 (second compound 0.316 µM) was over 10000 nM. For the same molecule, the IC50 (second compound 1 µM) was over 10000 nM, the IC50 (second compound 3.16 µM) was over 10000 nM and the IC50 (second compound 10 µM) was over 10000 nM. For the same molecule, the viability, T/C [1] was 113%, the viability, T/C [2] was 88.9% and the viability, T/C [3] was 116%. For the same molecule, the viability, T/C [4] was 114%, the viability, T/C [25] was 109% and the viability, T/C [26] was 108%. It also gave a viability, T/C [5] of 100%, a viability, T/C [6] of 97.8% and a viability, T/C [7] of 83.5%. The viability, T/C [8] was 94.3%, the viability, T/C [27] was 98% and the viability, T/C [28] was 87.3%. For the same molecule, the viability, T/C [9] was 93.1%, the viability, T/C [10] was 99.3% and the viability, T/C [11] was 75.8%. It also gave a viability, T/C [12] of 99.7%, a viability, T/C [29] of 96.6% and a viability, T/C [30] of 93.5%. It also gave a viability, T/C [13] of 88.6%, a viability, T/C [14] of 98.6% and a viability, T/C [15] of 107%. The viability, T/C [16] was 121%, the viability, T/C [31] was 113% and the viability, T/C [32] was 83%. It also gave a viability, T/C [17] of 118%, a viability, T/C [18] of 102% and a viability, T/C [19] of 119%. It also gave a viability, T/C [20] of 127%, a viability, T/C [33] of 92.5% and a viability, T/C [34] of 91.9%. It also gave a viability, T/C [21] of 107%, a viability, T/C [22] of 122% and a viability, T/C [23] of 139%. The viability, T/C [24] was 146%, the viability, T/C [35] was 115% and the viability, T/C [36] was 106%.
